Measured values published in ChEMBL document CHEMBL6087448, “Eradication of Therapy-Resistant Cancer Stem Cells by Novel Telmisartan Derivatives” (J Med Chem, 2025).
Active and inactive are the calls of the source. The rule behind the calls is not given here.

Key:
K-562R [1] = assay: Sensitization of imatinib-induced cytotoxicity against human K562-r cells assessed as reduction in metabolic activity at 0.5 to 6 uM measured after 72 hrs by MTT assay; assay type: functional, cell-based; conditions: dose 0.5-6 µM
K562 = assay: Cytotoxicity against human K562 cells assessed as reduction in metabolic activity at 10 uM measured after 72 hrs by MTT assay; assay type: functional, cell-based
K-562R [2] = assay: Cytotoxicity against human K562-r cells assessed as reduction in metabolic activity; assay type: functional, cell-based
K-562R [3] = assay: Sensitization of imatinib-induced cytotoxicity against human K562-r cells assessed as reduction in metabolic activity at 10 uM measured after 72 hrs by MTT assay; assay type: functional, cell-based
COS-7 = assay: Cytotoxicity against African green monkey COS-7 cells assessed as reduction in metabolic activity at 10 uM incubated for 72 hrs by MTT assay; assay type: toxicity, cell-based; conditions: chlorocebus aethiops, cos-7, 72 h
K-562R [4] = assay: Effect on ABCB1 protein expression in human K562-r cells at 4 uM incubated for 72 hrs by Western blotting based immunoassay; assay type: functional, cell-based
K-562R [5] = assay: Inhibition of side population phenotype in human K562-r cells at 10 uM incubated for 90 mins by DCV staining based flow cytometric analysis relative to control; assay type: functional
K-562R [6] = assay: Sensitization of imatinib-induced cytotoxicity against human K562-r cells assessed as metabolic activity at 8 uM measured after 72 hrs by MTT assay relative to control; assay type: functional
K562-r [7] = assay: Effect on STAT5 phosphorylation in human K562-r cells at 4 uM measured after 6 hrs in presence of imatinib by Western blotting based immunoassay; assay type: cell-based
K562-r [8] = assay: Effect on STAT5 phosphorylation in human K562-r cells at 4 uM measured after 6 hrs by Western blotting based immunoassay; assay type: cell-based
K-562R [9] = assay: Sensitization of imatinib-induced cytotoxicity against human K562-r cells assessed as cell viability at 10 uM measured after 72 hrs by MTT assay relative to control; assay type: functional; conditions: read-out: Activity
K562-r [10] = assay: Inhibition of STAT5 phosphorylation in human K562-r cells at 4 uM measured after 72 hrs by Western blotting based immunoassay; assay type: cell-based
K-562R [11] = assay: Cytotoxicity against human K562-r cells assessed as cell viability at 10 uM incubated for 72 hrs by MTT assay relative to control; assay type: functional; conditions: read-out: Activity
K562-r [12] = assay: Inhibition of STAT5 phosphorylation in human K562-r cells at 4 uM measured after 6 hrs in presence of imatinib by Western blotting based immunoassay; assay type: cell-based
[13] = test system: Paclitaxel-resistant IGROV-1 cell; assay: Inhibition of side population phenotype in human Paclitaxel-resistant IGROV-1 cells expressing ABCB1 at 10 uM incubated for 90 mins by DCV staining based flow cytometric analysis; assay type: functional
A549 [14] = assay: Inhibition of side population phenotype in human A549 cells expressing ABCC1 at 10 uM incubated for 90 mins by DCV staining based flow cytometric analysis; assay type: functional, cell-based
MCF7 [15] = assay: Effect on STAT5 protein expression in human MCF7 cells at 10 uM incubated for 72 hrs by Western blotting based immunoassay; assay type: functional, cell-based
[16] = test system: Docetaxel-resistant DU145 cell; assay: Enhancement of docetaxel-induced anti-metabolic activity against human Docetaxel-resistant DU145 cell assessed as reduction in metabolic activity at 10 uM measured after 72 hrs by MTT assay; assay type: functional, cell-based
MCF7 [17] = assay: Inhibition of STAT5 phosphorylation in human MCF7 cells at 10 uM incubated for 72 hrs by Western blotting based immunoassay; assay type: cell-based
[18] = test system: Docetaxel-resistant DU145 cell; assay: Inhibition of side population phenotype in human Docetaxel-resistant DU145 cell expressing ABCB1 at 10 uM incubated for 90 mins by DCV staining based flow cytometric analysis; assay type: functional
A2780/Taxol [19] = assay: Sensitization of paclitaxel-induced cytotoxicity against human Paclitaxel-resistant A2780 cells assessed as reduction in metabolic activity at 10 uM measured after 72 hrs by MTT assay; assay type: functional, cell-based
A2780/Taxol [20] = assay: Inhibition of side population phenotype in human Paclitaxel-resistant A2780 cells expressing ABCB1 at 10 uM incubated for 90 mins by DCV staining based flow cytometric analysis; assay type: functional, cell-based
[21] = test system: Paclitaxel-resistant IGROV-1 cell; assay: Enhancement of paclitaxel-induced anti-metabolic activity in human Paclitaxel-resistant IGROV-1 cells assessed as reduction in metabolic activity upto 300 nM measured after 72 hrs by MTT assay; assay type: functional, cell-based
[22] = test system: Paclitaxel-resistant IGROV-1 cell; assay: Inhibition of STAT5 phosphorylation in human Paclitaxel-resistant IGROV-1 cells expressing ABCB1 at 10 uM incubated for 72 hrs by Western blotting based immunoassay
A549 [23] = assay: Inhibition of STAT5 phosphorylation in human A549 cells at 10 uM incubated for 72 hrs by Western blotting based immunoassay; assay type: cell-based
[24] = test system: Paclitaxel-resistant A2780; assay: Inhibition of STAT5 phosphorylation in human Paclitaxel-resistant A2780 cells expressing ABCB1 at 10 uM incubated for 72 hrs by Western blotting based immunoassay; assay type: cell-based
[25] = test system: Paclitaxel-resistant IGROV-1 cell; assay: Downregulation of STAT5 protein expression in human Paclitaxel-resistant IGROV-1 cells expressing ABCB1 at 10 uM incubated for 72 hrs by Western blotting based immunoassay; assay type: functional
[26] = test system: Docetaxel-resistant PC-3 cell; assay: Inhibition of side population phenotype in human Docetaxel-resistant PC-3 cell expressing ABCB1 at 10 uM incubated for 90 mins by DCV staining based flow cytometric analysis; assay type: functional
A549 [27] = assay: Effect on STAT5 protein expression in human A549 cells at 10 uM incubated for 72 hrs by Western blotting based immunoassay; assay type: functional, cell-based
MCF7 [28] = assay: Inhibition of side population phenotype in human MCF7 cells expressing ABCG2 at 10 uM incubated for 90 mins by DCV staining based flow cytometric analysis; assay type: functional, cell-based
[29] = test system: Docetaxel-resistant PC-3 cell; assay: Enhancement of docetaxel-induced anti-metabolic activity against human Docetaxel-resistant PC-3 cell assessed as reduction in metabolic activity at 10 uM measured after 72 hrs by MTT assay; assay type: functional, cell-based
A2780/Taxol [30] = assay: Effect on STAT5 protein expression in human Paclitaxel-resistant A2780 cells expressing ABCB1 at 10 uM incubated for 72 hrs by Western blotting based immunoassay; assay type: functional, cell-based
K562-r [31] = assay: Effect on STAT5 phosphorylation in human K562-r cells at 4 uM measured after 72 hrs by Western blotting based immunoassay; assay type: cell-based
K-562R [32] = assay: Inhibition of side population phenotype in human K562-r cells at 0.1 uM incubated for 90 mins by DCV staining based flow cytometric analysis; assay type: functional, cell-based

COc1ccc(CCN(C)CCCC(C#N)(c2ccc(OC)c(OC)c2)C(C)C)cc1OC (configuration not stated)
Activity (K-562R [1]): Active | Activity (K562): inactive | Activity (K-562R [2]): inactive

CCCc1nc2ccccc2n1Cc1ccccc1C(=O)O
Activity (K-562R [3]): inactive | Activity (COS-7): Non-toxic

CCCc1nc2ccccc2n1Cc1ccccc1C(=O)OC
Activity (K-562R [4]): inactive | Activity (COS-7): Non-toxic | inhibition (K-562R [5]): inactive | Activity (K-562R [6]): 44% | Activity (K562-r [7]): inactive | Activity (K562-r [8]): inactive | viability at 10 µM (K-562R [9]): 34% | inhibition (K562-r [10]): Active; Lesser Effect Observed

CCCc1nc2ccccc2n1Cc1ccc(-c2ccc(C(=O)O)cc2)cc1
Activity (K-562R [3]): inactive | Activity (COS-7): Non-toxic

CCCc1nc2ccccc2n1Cc1ccccc1C(N)=O
viability at 10 µM (K-562R [11]): ~75% | Activity (K-562R [3]): inactive | Activity (COS-7): Non-toxic

CCCc1nc2ccccc2n1Cc1ccc(C(=O)OC)cc1
Activity (COS-7): Non-toxic | inhibition (K-562R [5]): inactive | Activity (K-562R [6]): 44% | viability at 10 µM (K-562R [9]): 34%

CCCc1nc2ccccc2n1Cc1ccc(-c2cccc(C(=O)OC)c2)cc1
Activity (COS-7): Non-toxic | viability at 10 µM (K-562R [9]): 34%

CCCc1nc2ccccc2n1Cc1ccc(-c2ccccc2C(=O)OC)cc1
Activity (K-562R [4]): inactive | Activity (COS-7): Non-toxic | inhibition (K-562R [5]): Active | Activity (K562-r [7]): inactive | Activity (K562-r [8]): inactive | inhibition (K562-r [10]): Active; Lesser Effect Observed

C/C=C/C[C@@H](C)C(=O)[C@H]1C(=O)N[C@@H](C(C)C)C(=O)N(C)CC(=O)N(C)[C@@H](CC(C)C)C(=O)N[C@@H](C(C)C)C(=O)N(C)[C@@H](CC(C)C)C(=O)N[C@@H](C)C(=O)N[C@H](C)C(=O)N(C)[C@@H](CC(C)C)C(=O)N(C)[C@@H](CC(C)C)C(=O)N(C)[C@@H](C(C)C)C(=O)N1C
Activity (K-562R [1]): Active | Activity (K562): inactive | Activity (K-562R [2]): inactive

CCCc1nc2ccccc2n1Cc1ccc(-c2ccccc2C(=O)O)cc1
Activity (K-562R [3]): inactive | Activity (COS-7): Non-toxic

CCCc1nc2ccccc2n1Cc1ccc(-c2ccc(C(N)=O)cc2)cc1
Activity (K-562R [4]): inactive | inhibition (K562-r [12]): Active | inhibition [13]: Active | inhibition (A549 [14]): inactive | Activity (COS-7): Non-toxic | inhibition (K-562R [5]): Active | Activity (MCF7 [15]): inactive | Activity [16]: Active | inhibition (MCF7 [17]): Active | inhibition [18]: Active | Activity (A2780/Taxol [19]): Active | inhibition (A2780/Taxol [20]): Active | Activity [21]: Active | inhibition [22]: Active | inhibition (A549 [23]): Active | Activity (K562-r [8]): inactive | inhibition [24]: Active | Activity [25]: Active | inhibition (K562-r [10]): Active | inhibition [26]: Active | Activity (A549 [27]): inactive | inhibition (MCF7 [28]): inactive | Activity [29]: Active | Activity (A2780/Taxol [30]): inactive

CCCc1nc2ccccc2n1Cc1cccc(C(N)=O)c1
Activity (K-562R [3]): inactive | Activity (COS-7): Non-toxic

CCCc1nc2ccccc2n1Cc1cccc(C(=O)OC)c1
Activity (COS-7): Non-toxic | inhibition (K-562R [5]): inactive | Activity (K-562R [6]): 44% | viability at 10 µM (K-562R [9]): 34%

CCCc1nc2ccccc2n1Cc1ccc(-c2cccc(C(=O)O)c2)cc1
Activity (K-562R [3]): inactive | Activity (COS-7): Non-toxic

COc1cc2c(cc1OC)CN(CCc1ccc(NC(=O)c3cccc4c(=O)c5cccc(OC)c5[nH]c34)cc1)CC2
Activity (K562-r [31]): inactive | inhibition (K-562R [32]): Active | Activity (K-562R [1]): Active | Activity (K562): inactive | Activity (K562-r [7]): inactive | Activity (K562-r [8]): inactive | Activity (K-562R [2]): inactive

CCCc1nc2ccccc2n1Cc1ccc(C(=O)O)cc1
Activity (K-562R [3]): inactive | Activity (COS-7): Non-toxic

CCCc1nc2ccccc2n1Cc1ccc(-c2ccc(C(=O)OC)cc2)cc1
Activity (K-562R [4]): inactive | inhibition (K562-r [12]): Active | viability at 10 µM (K-562R [11]): ~75% | Activity (COS-7): Non-toxic | inhibition (K-562R [5]): Active | Activity (K562-r [8]): inactive | inhibition (K562-r [10]): Active

CCCc1nc2ccccc2n1Cc1ccc(C(N)=O)cc1
Activity (K-562R [3]): inactive | Activity (COS-7): Non-toxic

CCCc1nc2ccccc2n1Cc1cccc(C(=O)O)c1
Activity (K-562R [3]): inactive | Activity (COS-7): Non-toxic

CCCc1nc2ccccc2n1Cc1ccc(-c2cccc(C(N)=O)c2)cc1
Activity (K-562R [4]): inactive | inhibition (K562-r [12]): Active | inhibition [13]: Active | inhibition (A549 [14]): inactive | Activity (COS-7): Non-toxic | inhibition (K-562R [5]): Active | Activity (MCF7 [15]): inactive | Activity [16]: Active | inhibition (MCF7 [17]): Active | inhibition [18]: Active | Activity (A2780/Taxol [19]): Active | inhibition (A2780/Taxol [20]): Active | Activity [21]: Active | inhibition [22]: Active | inhibition (A549 [23]): Active | Activity (K562-r [8]): inactive | inhibition [24]: Active | Activity [25]: Active | inhibition (K562-r [10]): Active; Lesser Effect Observed | inhibition [26]: Active | Activity (A549 [27]): inactive | inhibition (MCF7 [28]): inactive | Activity [29]: Active | Activity (A2780/Taxol [30]): inactive

CCCc1nc2ccccc2n1Cc1ccc(-c2ccccc2C(N)=O)cc1
Activity (COS-7): Non-toxic
